According to BindingDB's records for doi:10.1021/jm010294e (Novartis Institute For Biomedical Reasearch, 2001):
pIC50: −log10 of the molar value.

Target: Apolipoprotein B-100 (Homo sapiens, UniProt P04114)
Assay: Inhibition of apolipoprotein B (apoB) secreted by human hepatoma cells (Hep G2) […]

Chain of Apolipoprotein B-100 (P04114 whole entry C1422Y): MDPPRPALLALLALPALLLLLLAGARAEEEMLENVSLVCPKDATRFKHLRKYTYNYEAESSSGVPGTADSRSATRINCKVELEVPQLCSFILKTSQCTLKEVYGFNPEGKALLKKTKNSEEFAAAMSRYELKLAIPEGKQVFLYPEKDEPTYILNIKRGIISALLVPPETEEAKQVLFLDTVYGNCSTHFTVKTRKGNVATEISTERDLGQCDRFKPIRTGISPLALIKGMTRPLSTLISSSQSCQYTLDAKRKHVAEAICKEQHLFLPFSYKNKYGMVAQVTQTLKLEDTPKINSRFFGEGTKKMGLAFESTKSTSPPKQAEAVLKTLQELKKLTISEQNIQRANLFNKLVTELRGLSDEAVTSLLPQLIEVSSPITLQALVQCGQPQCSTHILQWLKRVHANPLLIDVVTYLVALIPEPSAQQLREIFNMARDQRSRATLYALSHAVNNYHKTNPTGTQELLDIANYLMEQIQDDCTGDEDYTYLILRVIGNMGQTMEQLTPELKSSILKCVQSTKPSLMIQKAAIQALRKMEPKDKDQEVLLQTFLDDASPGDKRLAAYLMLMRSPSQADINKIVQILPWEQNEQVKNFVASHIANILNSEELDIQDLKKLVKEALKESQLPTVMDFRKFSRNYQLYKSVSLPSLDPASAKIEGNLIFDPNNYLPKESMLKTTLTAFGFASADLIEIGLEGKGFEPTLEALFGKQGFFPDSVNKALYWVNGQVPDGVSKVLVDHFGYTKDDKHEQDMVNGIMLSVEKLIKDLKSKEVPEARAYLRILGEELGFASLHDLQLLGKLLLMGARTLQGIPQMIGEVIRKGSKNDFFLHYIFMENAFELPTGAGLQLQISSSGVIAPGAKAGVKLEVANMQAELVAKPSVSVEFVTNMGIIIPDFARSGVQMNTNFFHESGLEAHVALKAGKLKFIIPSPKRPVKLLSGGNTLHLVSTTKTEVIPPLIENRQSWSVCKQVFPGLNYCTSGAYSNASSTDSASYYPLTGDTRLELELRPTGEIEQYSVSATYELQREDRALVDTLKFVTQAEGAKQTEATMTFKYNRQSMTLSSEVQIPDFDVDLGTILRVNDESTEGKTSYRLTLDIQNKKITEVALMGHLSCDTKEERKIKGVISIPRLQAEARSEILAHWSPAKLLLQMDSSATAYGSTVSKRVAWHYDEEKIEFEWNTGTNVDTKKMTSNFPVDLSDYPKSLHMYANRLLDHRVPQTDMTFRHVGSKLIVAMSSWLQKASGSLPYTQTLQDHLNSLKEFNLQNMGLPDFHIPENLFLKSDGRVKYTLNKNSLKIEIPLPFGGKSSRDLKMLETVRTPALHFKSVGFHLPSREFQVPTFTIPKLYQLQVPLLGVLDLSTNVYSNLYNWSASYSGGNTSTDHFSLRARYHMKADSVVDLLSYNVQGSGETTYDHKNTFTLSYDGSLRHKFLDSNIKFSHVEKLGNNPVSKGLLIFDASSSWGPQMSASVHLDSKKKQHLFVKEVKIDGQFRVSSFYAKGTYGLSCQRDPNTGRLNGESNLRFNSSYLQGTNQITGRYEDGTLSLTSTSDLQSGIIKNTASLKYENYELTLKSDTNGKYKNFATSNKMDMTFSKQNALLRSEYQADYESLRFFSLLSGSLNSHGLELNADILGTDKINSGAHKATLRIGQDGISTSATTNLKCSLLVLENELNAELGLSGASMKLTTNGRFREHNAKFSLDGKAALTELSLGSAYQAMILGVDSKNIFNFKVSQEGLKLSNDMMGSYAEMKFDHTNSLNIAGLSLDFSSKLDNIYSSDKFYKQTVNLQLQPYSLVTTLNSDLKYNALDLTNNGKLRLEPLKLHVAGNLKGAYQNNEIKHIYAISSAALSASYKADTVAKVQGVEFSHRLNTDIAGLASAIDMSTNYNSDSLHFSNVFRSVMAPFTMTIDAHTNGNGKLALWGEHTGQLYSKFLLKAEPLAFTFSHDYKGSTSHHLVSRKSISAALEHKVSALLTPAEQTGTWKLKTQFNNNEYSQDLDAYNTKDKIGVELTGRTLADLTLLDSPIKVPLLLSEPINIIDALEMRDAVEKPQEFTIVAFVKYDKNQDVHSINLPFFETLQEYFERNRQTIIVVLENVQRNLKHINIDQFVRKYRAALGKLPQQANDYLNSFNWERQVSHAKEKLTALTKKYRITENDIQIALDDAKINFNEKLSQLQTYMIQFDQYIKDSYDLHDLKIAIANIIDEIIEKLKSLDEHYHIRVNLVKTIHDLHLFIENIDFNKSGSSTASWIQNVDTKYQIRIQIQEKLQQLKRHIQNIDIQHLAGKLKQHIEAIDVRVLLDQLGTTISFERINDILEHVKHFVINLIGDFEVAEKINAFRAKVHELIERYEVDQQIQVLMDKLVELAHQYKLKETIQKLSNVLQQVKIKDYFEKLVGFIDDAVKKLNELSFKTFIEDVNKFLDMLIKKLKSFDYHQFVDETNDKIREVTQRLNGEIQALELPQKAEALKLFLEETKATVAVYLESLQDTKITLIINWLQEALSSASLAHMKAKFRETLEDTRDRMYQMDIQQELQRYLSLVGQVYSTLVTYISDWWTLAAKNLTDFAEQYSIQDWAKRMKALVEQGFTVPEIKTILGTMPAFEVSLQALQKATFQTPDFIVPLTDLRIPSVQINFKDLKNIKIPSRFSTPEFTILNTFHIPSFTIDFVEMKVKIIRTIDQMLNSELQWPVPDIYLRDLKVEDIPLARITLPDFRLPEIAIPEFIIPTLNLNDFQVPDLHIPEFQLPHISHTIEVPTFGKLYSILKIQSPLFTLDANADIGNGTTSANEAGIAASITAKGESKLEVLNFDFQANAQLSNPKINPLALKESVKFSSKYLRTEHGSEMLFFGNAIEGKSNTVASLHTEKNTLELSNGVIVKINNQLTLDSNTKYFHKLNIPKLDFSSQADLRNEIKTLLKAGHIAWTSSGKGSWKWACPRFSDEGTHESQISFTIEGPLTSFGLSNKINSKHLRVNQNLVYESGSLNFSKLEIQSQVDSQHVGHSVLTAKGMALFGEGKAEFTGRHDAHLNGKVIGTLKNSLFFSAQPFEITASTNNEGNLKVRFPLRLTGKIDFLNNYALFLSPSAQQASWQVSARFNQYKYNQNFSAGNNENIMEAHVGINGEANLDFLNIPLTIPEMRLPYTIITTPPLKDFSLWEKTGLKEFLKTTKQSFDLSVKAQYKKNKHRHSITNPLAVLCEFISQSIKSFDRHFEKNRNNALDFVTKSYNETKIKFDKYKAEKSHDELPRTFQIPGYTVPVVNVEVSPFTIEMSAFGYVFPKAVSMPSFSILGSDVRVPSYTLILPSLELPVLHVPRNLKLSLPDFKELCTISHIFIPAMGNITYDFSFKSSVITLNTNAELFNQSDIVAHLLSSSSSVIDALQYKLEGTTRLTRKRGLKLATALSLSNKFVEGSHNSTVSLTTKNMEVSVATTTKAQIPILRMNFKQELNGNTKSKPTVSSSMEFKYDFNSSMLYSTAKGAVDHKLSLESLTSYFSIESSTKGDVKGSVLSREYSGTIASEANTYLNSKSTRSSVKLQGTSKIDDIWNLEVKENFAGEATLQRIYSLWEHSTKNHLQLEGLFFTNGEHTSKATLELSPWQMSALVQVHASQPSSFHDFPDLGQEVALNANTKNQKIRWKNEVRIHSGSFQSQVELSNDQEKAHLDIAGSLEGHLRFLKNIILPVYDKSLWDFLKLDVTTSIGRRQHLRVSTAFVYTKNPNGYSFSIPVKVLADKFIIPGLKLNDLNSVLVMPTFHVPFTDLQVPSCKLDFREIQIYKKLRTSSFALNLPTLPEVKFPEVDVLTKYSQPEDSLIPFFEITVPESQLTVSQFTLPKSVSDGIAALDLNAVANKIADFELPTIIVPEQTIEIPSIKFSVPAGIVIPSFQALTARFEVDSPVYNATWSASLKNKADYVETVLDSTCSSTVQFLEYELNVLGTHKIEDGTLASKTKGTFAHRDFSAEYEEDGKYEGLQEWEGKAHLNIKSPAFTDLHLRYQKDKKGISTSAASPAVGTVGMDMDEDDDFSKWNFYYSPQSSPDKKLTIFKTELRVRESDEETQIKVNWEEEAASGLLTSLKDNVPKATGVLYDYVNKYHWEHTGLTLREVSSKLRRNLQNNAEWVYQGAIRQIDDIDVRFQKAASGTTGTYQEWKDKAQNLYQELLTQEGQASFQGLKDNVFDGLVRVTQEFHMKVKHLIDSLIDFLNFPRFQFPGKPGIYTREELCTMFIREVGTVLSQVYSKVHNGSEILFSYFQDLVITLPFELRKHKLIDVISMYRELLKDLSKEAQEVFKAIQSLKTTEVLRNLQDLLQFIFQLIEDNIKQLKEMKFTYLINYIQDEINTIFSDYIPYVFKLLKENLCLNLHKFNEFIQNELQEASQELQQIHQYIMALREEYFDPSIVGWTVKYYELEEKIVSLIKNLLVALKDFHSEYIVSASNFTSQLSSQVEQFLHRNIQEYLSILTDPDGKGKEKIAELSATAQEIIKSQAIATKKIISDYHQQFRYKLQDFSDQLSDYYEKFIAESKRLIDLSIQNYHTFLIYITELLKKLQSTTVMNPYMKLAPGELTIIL

Going from `CS(=O)(=O)NC1Cc2ccc(NC(=O)c3ccccc3-c3ccc(C(F)(F)F)cc3)cc2C1` (stereo not drawn) [4'-Trifluoromethyl-biphenyl-2-carboxylic acid (2-methanesulfonylamino-indan-5-yl)-amide] to `Cc1cccc(C(=O)Nc2ccc3c(c2)C[C@@H](NS(C)(=O)=O)C3)c1-c1ccc(C(F)(F)F)cc1` [6-Methyl-4'-trifluoromethyl-biphenyl-2-carboxylic acid (2-methanesulfonylamino-indan-5-yl)-amide], the pIC50 rises from 7.22 to 8.06 (0.84 log units).

First: CN(C)C(=O)NC1Cc2ccc(NC(=O)c3ccccc3-c3ccc(C(F)(F)F)cc3)cc2C1 (stereo not drawn) [4'-Trifluoromethyl-biphenyl-2-carboxylic acid [2-(3,3-dimethyl-ureido)-indan-5-yl]-amide]
Second: COC(=O)N[C@@H]1Cc2ccc(NC(=O)c3ccccc3-c3ccc(C(F)(F)F)cc3)cc2C1 [{5-[(4'-Trifluoromethyl-biphenyl-2-carbonyl)-amino]-indan-2-yl}-carbamic acid methyl ester]
The pIC50 of the first is 1.36 log units lower: 6.92 for the first, 8.28 for the second.

Compared with `Cc1cc(C)c(-c2ccc(C(F)(F)F)cc2)c(C(=O)Nc2ccc3c(c2)C[C@@H](NS(=O)(=O)c2cccs2)C3)c1` [4,6-Dimethyl-4'-trifluoromethyl-biphenyl-2-carboxylic acid [2-(thiophene-2-sulfonylamino)-indan-5-yl]-amide], `Cc1cc(C)c(-c2ccc(C(F)(F)F)cc2)c(C(=O)Nc2ccc3c(c2)C[C@H](NS(=O)(=O)c2cccs2)C3)c1` [4,6-Dimethyl-4'-trifluoromethyl-biphenyl-2-carboxylic acid [2-(thiophene-2-sulfonylamino)-indan-5-yl]-amide] is 0.41 log units higher in pIC50: 8.59 for the first, 9.00 for the second. The second is the more potent here.

Going from `COC(=O)N1CCN([C@@H]2Cc3ccc(NC(=O)c4cccc(C)c4-c4ccc(C(F)(F)F)cc4)cc3C2)CC1` [4-{5-[(6-Methyl-4'-trifluoromethyl-biphenyl-2-carbonyl)-amino]-indan-2-yl}-piperazine-1-carboxylic acid methyl ester] to `COC(=O)N1CCN([C@H]2Cc3ccc(NC(=O)c4cccc(C)c4-c4ccc(C(F)(F)F)cc4)cc3C2)CC1` [4-{5-[(6-Methyl-4'-trifluoromethyl-biphenyl-2-carbonyl)-amino]-indan-2-yl}-piperazine-1-carboxylic acid methyl ester], the pIC50 rises from 7.37 to 8.74 (1.37 log units).

First: Cc1ccc(-c2c(C)cccc2C(=O)Nc2ccc3c(c2)CC(NS(=O)(=O)c2ccccc2)C3)cc1 (stereo not drawn) [6,4'-Dimethyl-biphenyl-2-carboxylic acid (2-benzenesulfonylamino-indan-5-yl)-amide]
Second: O=C(Nc1ccc2c(c1)CC(NS(=O)(=O)c1ccccc1)C2)c1ccccc1-c1ccccc1 (stereo not drawn) [Biphenyl-2-carboxylic acid (2-benzenesulfonylamino-indan-5-yl)-amide]
The pIC50 of the first is 0.68 log units higher: 8.60 for the first, 7.92 for the second. The first is the more potent here.

Going from `Cc1cccc(C(=O)Nc2ccc3c(c2)C[C@H](NS(C)(=O)=O)C3)c1-c1ccc(C(F)(F)F)cc1` [6-Methyl-4'-trifluoromethyl-biphenyl-2-carboxylic acid (2-methanesulfonylamino-indan-5-yl)-amide] to `Cc1cccc(C(=O)Nc2ccc3c(c2)CC(CNS(C)(=O)=O)C3)c1-c1ccc(C(F)(F)F)cc1` (stereo not drawn) [6-Methyl-4'-trifluoromethyl-biphenyl-2-carboxylic acid [2-(methanesulfonylamino-methyl)-indan-5-yl]-amide], the pIC50 falls from 8.74 to 8.19 (0.55 log units). The first is the more potent here.

`Cc1cccc(C(=O)Nc2ccc3c(c2)CCC(NS(C)(=O)=O)CC3)c1-c1ccc(C(F)(F)F)cc1` (stereo not drawn) [6-Methyl-4'-trifluoromethyl-biphenyl-2-carboxylic acid (7-methanesulfonylamino-6,7,8,9-tetrahydro-5H-benzocyclohepten-2-yl)-amide] and `COC(=O)NC1CCc2ccc(NC(=O)c3cccc(C)c3-c3ccc(C(F)(F)F)cc3)cc2CC1` (stereo not drawn) [{2-[(6-Methyl-4'-trifluoromethyl-biphenyl-2-carbonyl)-amino]-6,7,8,9-tetrahydro-5H-benzocyclohepten-7-yl}-carbamic acid methyl ester] are within 0.2 log units of each other in pIC50: 8.64 for the first, 8.80 for the second.

Going from `Cc1cccc(C(=O)Nc2ccc3c(c2)C[C@H](NS(=O)(=O)c2cccs2)C3)c1-c1ccc(C(F)(F)F)cc1` [6-Methyl-4'-trifluoromethyl-biphenyl-2-carboxylic acid [2-(thiophene-2-sulfonylamino)-indan-5-yl]-amide] to `Cc1cccc(C(=O)Nc2ccc3c(c2)CC(CNS(=O)(=O)c2cccs2)C3)c1-c1ccc(C(F)(F)F)cc1` (stereo not drawn) [6-Methyl-4'-trifluoromethyl-biphenyl-2-carboxylic acid {2-[(thiophene-2-sulfonylamino)-methyl]-indan-5-yl}-amide], the pIC50 falls from 9.05 to 8.72 (0.33 log units). The first is the more potent here.

Compared with `Cc1cccc(C(=O)Nc2ccc3c(c2)CCC(NS(=O)(=O)c2cccs2)CC3)c1-c1ccc(C(F)(F)F)cc1` (stereo not drawn) [6-Methyl-4'-trifluoromethyl-biphenyl-2-carboxylic acid [7-(thiophene-2-sulfonylamino)-6,7,8,9-tetrahydro-5H-benzocyclohepten-2-yl]-amide], `COC(=O)N[C@@H]1Cc2ccc(NC(=O)c3cccc(C)c3-c3ccc(C(F)(F)F)cc3)cc2C1` [(R)-methyl 5-(6-methyl-4'-(trifluoromethyl)biphenyl-2-ylcarboxamido)-2,3-dihydro-1H-inden-2-ylcarbamate] is 0.61 log units lower in pIC50: 8.80 for the first, 8.19 for the second. The first is the more potent here.

First: COC(=O)NCCC1Cc2ccc(NC(=O)c3cccc(C)c3-c3ccc(C(F)(F)F)cc3)cc2C1 (stereo not drawn) [(2-{5-[(6-Methyl-4'-trifluoromethyl-biphenyl-2-carbonyl)-amino]-indan-2-yl}-ethyl)-carbamic acid methyl ester]
Second: COC(=O)NCC1Cc2ccc(NC(=O)c3cccc(C)c3-c3ccc(C(F)(F)F)cc3)cc2C1 (stereo not drawn) [{5-[(6-Methyl-4'-trifluoromethyl-biphenyl-2-carbonyl)-amino]-indan-2-ylmethyl}-carbamic acid methyl ester]
The pIC50 of the first is 0.39 log units lower: 8.00 for the first, 8.39 for the second. The second is the more potent here.

First: Cc1cccc(C(=O)Nc2ccc3c(c2)C[C@@H](NCc2ccccn2)C3)c1-c1ccc(C(F)(F)F)cc1 [(S)-6-methyl-N-(2-(pyridin-2-ylmethylamino)-2,3-dihydro-1H-inden-5-yl)-4'-(trifluoromethyl)biphenyl-2-carboxamide]
Second: COC(=O)N[C@H]1Cc2ccc(NC(=O)c3cccc(C)c3-c3ccc(C(F)(F)F)cc3)cc2C1 [{5-[(6-Methyl-4'-trifluoromethyl-biphenyl-2-carbonyl)-amino]-indan-2-yl}-carbamic acid methyl ester]
The pIC50 of the first is 0.38 log units lower: 8.77 for the first, 9.15 for the second. The second is the more potent here.

Compared with `COC(=O)NC1CCc2ccc(NC(=O)c3cccc(C)c3-c3ccc(Cl)cc3)cc2CC1` (stereo not drawn) [{2-[(4'-Chloro-6-methyl-biphenyl-2-carbonyl)-amino]-6,7,8,9-tetrahydro-5H-benzocyclohepten-7-yl}-carbamic acid methyl ester], `COC(=O)NCC1Cc2ccc(NC(=O)c3cccc(C)c3-c3ccc(Cl)cc3)cc2C1` (stereo not drawn) [{5-[(4'-Chloro-6-methyl-biphenyl-2-carbonyl)-amino]-indan-2-ylmethyl}-carbamic acid methyl ester] is 0.64 log units lower in pIC50: 8.70 for the first, 8.06 for the second. The first is the more potent here.

`COC(=O)NC1CCc2ccc(NC(=O)c3cc(C)cc(C)c3-c3ccc(C(F)(F)F)cc3)cc2CC1` (stereo not drawn) [{2-[(4,6-Dimethyl-4'-trifluoromethyl-biphenyl-2-carbonyl)-amino]-6,7,8,9-tetrahydro-5H-benzocyclohepten-7-yl}-carbamic acid methyl ester] and `COC(=O)N[C@@H]1Cc2ccc(NC(=O)c3cc(C)cc(C)c3-c3ccc(C(F)(F)F)cc3)cc2C1` [{5-[(4,6-Dimethyl-4'-trifluoromethyl-biphenyl-2-carbonyl)-amino]-indan-2-yl}-carbamic acid methyl ester] are within 0.2 log units of each other in pIC50: 8.62 for the first, 8.60 for the second.

First: COC(=O)NC1Cc2ccc(NC(=O)c3cc(C)cc(C)c3-c3ccc(Cl)cc3)cc2C1 (stereo not drawn) [{5-[(4'-Chloro-4,6-dimethyl-biphenyl-2-carbonyl)-amino]-indan-2-yl}-carbamic acid methyl ester]
Second: COC(=O)N[C@H]1Cc2ccc(NC(=O)c3cc(C)cc(C)c3-c3ccc(C(F)(F)F)cc3)cc2C1 [{5-[(4,6-Dimethyl-4'-trifluoromethyl-biphenyl-2-carbonyl)-amino]-indan-2-yl}-carbamic acid methyl ester]
The pIC50 of the first is 0.49 log units lower: 8.47 for the first, 8.96 for the second. The second is the more potent here.

`COC(=O)N[C@H]1Cc2ccc(NC(=O)c3ccccc3-c3ccc(C(F)(F)F)cc3)cc2C1` [{5-[(4'-Trifluoromethyl-biphenyl-2-carbonyl)-amino]-indan-2-yl}-carbamic acid methyl ester] and `COC(=O)N[C@H]1Cc2ccc(NC(=O)c3cc(C)ccc3-c3ccc(C(F)(F)F)cc3)cc2C1` [{5-[(4-Methyl-4'-trifluoromethyl-biphenyl-2-carbonyl)-amino]-indan-2-yl}-carbamic acid methyl ester] are within 0.2 log units of each other in pIC50: 8.72 for the first, 8.66 for the second.

First: COC(=O)N[C@H]1Cc2ccc(NC(=O)c3cc(C(F)(F)F)ccc3-c3ccc(C(F)(F)F)cc3)cc2C1 [{5-[(4,4'-Bis-trifluoromethyl-biphenyl-2-carbonyl)-amino]-indan-2-yl}-carbamic acid methyl ester]
Second: COC(=O)N[C@H]1Cc2ccc(NC(=O)c3cccc(C(F)(F)F)c3-c3ccc(C(F)(F)F)cc3)cc2C1 [{5-[(6,4'-Bis-trifluoromethyl-biphenyl-2-carbonyl)-amino]-indan-2-yl}-carbamic acid methyl ester]
The pIC50 of the first is 0.62 log units lower: 8.12 for the first, 8.74 for the second.

For `COC(=O)NCC1Cc2ccc(NC(=O)c3cc(C)cc(C)c3-c3ccc(C(F)(F)F)cc3)cc2C1` (stereo not drawn) [{5-[(4,6-Dimethyl-4'-trifluoromethyl-biphenyl-2-carbonyl)-amino]-indan-2-ylmethyl}-carbamic acid methyl ester], the pIC50 was 8.66.
